Reference: patent US9939427B2, “Method for evaluating the scent performance of perfumes or perfume mixtures” (Symrise AG, priority 2013, dated 2018)
“Also recorded” adds a separate entry of the source.

Key:
Type in all cases: cell-based
OR4K2 = target: T1, OR4K2 (Homo sapiens, UniProt Q8NGD2); assay: Ca-imaging of OR4K2-transfected HEK293 cells; design: key to OR4K2 responded to odorant: ▪: 18 olfactory receptors responded to 32 odorants in related with specific anosmia; conditions: HEK293 cells, individual odorant 200 μM, significant response p<0.05
T1 construct: specific primers, which amplify the complete open reading frame; expressed in transfected cells; host or cells: HEK293
T1 sequence (Q8NGD2 1-314): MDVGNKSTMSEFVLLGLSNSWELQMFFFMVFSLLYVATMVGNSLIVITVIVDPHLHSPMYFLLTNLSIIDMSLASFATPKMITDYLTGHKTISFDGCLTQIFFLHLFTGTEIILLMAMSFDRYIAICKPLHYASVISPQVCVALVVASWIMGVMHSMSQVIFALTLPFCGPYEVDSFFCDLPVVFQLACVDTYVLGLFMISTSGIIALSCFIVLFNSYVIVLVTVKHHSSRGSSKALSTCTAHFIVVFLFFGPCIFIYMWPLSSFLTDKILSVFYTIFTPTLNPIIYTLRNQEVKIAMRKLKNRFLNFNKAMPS
Method: (§1) HEK293 cells were cultivated in Petri dishes (Ø35 mm) as previously described (Benbernou et al. 2007). We grow up HEK293 cells in culture medium containing standard DMEM with 10% heat-inactivated fetal bovine serum, 2 mM L-glutamine, 100 units/ml penicillin, and 100 units/ml streptomycin in a humidified atmosphere (37° C., 5% CO2). After 2-3 days, the transfection process was carried out, whereby the cell culture was 70-80% confluent. The calciumphosphate method was applied to transfect DNA plasmid transiently in HEK293 cells in case of Ca-imaging method.
(§2) Calcium cations and phosphate anions created crystal precipitations coupled with DNA which could invade into the cells through endocytosis. Cells were transiently transfected with plasmid DNA which consists of pCI expression vector and PCR-amplified full-length cDNA of olfactory receptors candidates, and also Gα15, RTP1, Myr-Ric8A, HSC70, and m-Cherry as cofactors. The precipitation could be created after 15-20 min, with dropping the transfection solution on HEK293 cells. Before measuring by Ca-imaging cells were incubated 48-60 hours at 370 C, 5% CO2. Cationic liposome-mediated transfection method was applied to transfect DNA plasmid transiently in HANA3A cells in case of CRE-Luciferase and CRE-SEAP assays.
(§3) Calcium imaging of the transfected HEK293 cells was done by using chambers determinate an inverted microscope (Olympus; IX70) using a 10× objective (CPIanFL N Olympus). Fluorescence emission was determined every 4 s by using a CCD camera (Charge Coupled Device, C9100 Hamamatsu). The capillary tube which was responsible to supply odorants was generated closely above the cells. The columns filled with odorants, DMSO and ATP. Odorants were manually monitored to drop each 4-5 s to transfected cells. Solutions with drop wise form spread on HEK293 cells in 35 mm dishes.
(§4) In experiments, Fura-2 Acetoxymethylester (Fura-2/AM) was applied. The non-polar Fura2/AM is fluorescent but not yet calcium-sensitive. Once diffuses into cell plasma, Fura-2/AM is hydrolyzed to Fura-2 which is calcium-sensitive and functions as Ca2+ chelator. Regardless of the presence of calcium, Fura-2 emits at the wavelength of 510 nm. Once Fura-2 binds to free intracellular Ca2+ in cell plasma, its ratio of excitation at wavelengths of 340 nm and 380 nm is changed and correlated to the amount of intracellular Ca2+. According to this feature, the analysis of 340/380 nm excitation ratio for Fura-2 allows to quantify intracellular calcium levels.
(§5) In preparation for Ca-imaging measurements, transfected HEK293 cells were added 3 it Fura2/AM (3 μM) and incubated 30-45 min at 370 C, 5% CO2. After this step, experiments were carried out in a dark condition (Fura-2 is light-sensitive). After the incubation, medium of cell culture was replaced with 2 ml Ringer's solution.
(§6) Odorants were freshly prepared with DMSO as 1 M stocks solutions. Six mixtures (200 μM each chemical) were applied to cells sequentially (20 s each mixture/30 s Ringer). Those ORs tested with single odorants that had generated a response to odorant mixture group previously. Odorants were prepared in 100-200 μM concentration.
(§7) Ringer's solution was used for washing cells between measuring by two different odorants. Positive response was determined by the timing of the response, the strength of the response (more than twofold higher than the noise amplitude of the baseline), and the shape of the response curve (sharp rise in curve with gradual recovery). […]

OR10A6 = target: T2, OR10A6 (Homo sapiens, UniProt Q8NH74); assay: Ca-imaging of OR10A6-transfected HEK293 cells; design: key to OR10A6 responded to odorant: ▪: 18 olfactory receptors responded to 32 odorants in related with specific anosmia; conditions: for OR10A6 responded to odorant: HEK293 cells, individual odorant 200 μM, significant response p<0.05
T2 construct: specific primers, which amplify the complete open reading frame; expressed in transfected cells; host or cells: HEK293
T2 sequence (Q8NH74 1-314): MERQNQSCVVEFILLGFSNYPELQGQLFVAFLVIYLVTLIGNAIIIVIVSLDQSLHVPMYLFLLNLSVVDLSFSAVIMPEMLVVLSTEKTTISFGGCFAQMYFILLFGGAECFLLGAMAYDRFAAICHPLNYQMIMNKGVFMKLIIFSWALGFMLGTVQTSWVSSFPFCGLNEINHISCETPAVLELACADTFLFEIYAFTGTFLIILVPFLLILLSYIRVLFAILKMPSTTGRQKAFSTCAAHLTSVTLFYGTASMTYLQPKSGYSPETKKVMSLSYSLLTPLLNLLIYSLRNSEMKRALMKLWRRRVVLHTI
Method: as §1, §2, §3, §4, §5, §6, §7

OR8B4 = target: T3, OR8B4 (Homo sapiens, UniProt Q96RC9); assay: Ca-imaging of OR8B4-transfected HEK293 cells; conditions: Ca-imaging, single odorants 200 μM
T3 construct: specific primers, which amplify the complete open reading frame; expressed in transfected cells; host or cells: HEK293
T3 sequence (Q96RC9 1-309): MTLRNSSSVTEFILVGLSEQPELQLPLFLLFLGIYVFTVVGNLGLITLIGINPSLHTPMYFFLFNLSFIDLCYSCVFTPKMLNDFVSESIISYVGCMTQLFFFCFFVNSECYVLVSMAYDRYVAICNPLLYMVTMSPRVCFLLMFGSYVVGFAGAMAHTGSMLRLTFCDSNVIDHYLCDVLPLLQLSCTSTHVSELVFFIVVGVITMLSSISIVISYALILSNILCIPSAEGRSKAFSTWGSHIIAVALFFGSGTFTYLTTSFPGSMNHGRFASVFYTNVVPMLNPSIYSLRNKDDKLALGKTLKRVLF
Method: as §1, §2, §3, §4, §5, §6
(§8) Ringer's solution was used for washing cells between measuring by two different odorants. Positive response was determined by the timing of the response, the strength of the response (more than twofold higher than the noise amplitude of the baseline), and the shape of the response curve (sharp rise in curve with gradual recovery). The typical shape of response curves was established by observing responses to repeated stimulation with 200 μM of odorants. After testing with single odorants at 100 μM, stimulating odorants were often retested at 200 μM concentrations. To confirm the result of every receptor that produced a significant response curves, the experiment was repeated for twelve times. Finally, cells were exposed to ATP (0.25 mM) which could activate P2Y receptor channel and induce Ca2+ influx into cells. […]

[1] = tested on: HEK293 cells transfected with all cofactors and pCI plasmids without ORs; assay: Ca-imaging of control HEK293 cells without OR; conditions: odorant 200 μM, three times of measuring (Table 4, FIG. 5)
Method: as §1, §2, §3, §4, §5, §6, §8

OR8D2 = target: T4, OR8D2 (Homo sapiens, UniProt Q9GZM6); assay: Ca-imaging of OR8D2-transfected HEK293 cells; design: key to OR8D2 responded to odorant: ▪: 18 olfactory receptors responded to 32 odorants in related with specific anosmia; conditions: for Number of cell responses, Experiment (OR8D2): odorant 200 μM, approximately 2000 transfected cells in three times of measuring (Table 4, FIG. 5)
T4 construct: specific primers, which amplify the complete open reading frame; expressed in transfected cells; host or cells: HEK293
T4 sequence (Q9GZM6 1-311): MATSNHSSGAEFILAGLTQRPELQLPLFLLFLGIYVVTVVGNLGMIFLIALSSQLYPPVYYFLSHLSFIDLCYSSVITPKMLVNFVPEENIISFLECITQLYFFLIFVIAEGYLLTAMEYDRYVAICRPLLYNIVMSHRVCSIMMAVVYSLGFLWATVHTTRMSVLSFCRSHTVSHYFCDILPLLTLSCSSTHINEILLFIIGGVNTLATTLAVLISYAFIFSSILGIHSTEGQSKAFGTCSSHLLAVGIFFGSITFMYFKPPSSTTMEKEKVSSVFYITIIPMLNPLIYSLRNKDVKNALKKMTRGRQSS
Method: as §1, §2, §3, §4, §5, §6, §8

OR2L8 = target: T5, OR2L8 (Homo sapiens, UniProt Q8NGY9); assay: Ca-imaging of OR2L8-transfected HEK293 cells; design: key to OR2L8 responded to odorant: ▪: 18 olfactory receptors responded to 32 odorants in related with specific anosmia
T5 construct: specific primers, which amplify the complete open reading frame; expressed in transfected cells; host or cells: HEK293
T5 sequence (Q8NGY9 1-312): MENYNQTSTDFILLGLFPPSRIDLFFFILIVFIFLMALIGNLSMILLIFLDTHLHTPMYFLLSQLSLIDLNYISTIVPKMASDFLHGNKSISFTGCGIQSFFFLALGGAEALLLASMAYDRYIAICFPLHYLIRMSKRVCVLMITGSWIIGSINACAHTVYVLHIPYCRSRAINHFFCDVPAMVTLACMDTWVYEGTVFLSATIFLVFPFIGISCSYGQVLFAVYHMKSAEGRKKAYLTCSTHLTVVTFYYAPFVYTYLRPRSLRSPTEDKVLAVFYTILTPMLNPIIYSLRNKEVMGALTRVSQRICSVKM
Method: as §1, §2, §3, §4, §5, §6, §8

OR1B1 = target: T6, OR1B1 (Homo sapiens, UniProt Q8NGR6); assay: Ca-imaging of OR1B1-transfected HEK293 cells; design: key to OR1B1 responded to odorant: ▪: 18 olfactory receptors responded to 32 odorants in related with specific anosmia; conditions: Ca-imaging
T6 construct: specific primers, which amplify the complete open reading frame; expressed in transfected cells; host or cells: HEK293
T6 sequence (Q8NGR6 1-317): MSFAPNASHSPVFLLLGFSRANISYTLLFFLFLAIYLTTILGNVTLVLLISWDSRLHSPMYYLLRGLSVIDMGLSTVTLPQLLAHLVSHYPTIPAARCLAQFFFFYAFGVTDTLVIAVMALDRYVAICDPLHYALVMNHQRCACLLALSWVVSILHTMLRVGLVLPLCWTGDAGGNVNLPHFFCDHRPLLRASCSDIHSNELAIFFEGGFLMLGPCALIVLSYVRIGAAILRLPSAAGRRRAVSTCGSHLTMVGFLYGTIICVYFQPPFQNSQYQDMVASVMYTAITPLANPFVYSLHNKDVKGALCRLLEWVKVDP
Method: as §1, §2, §3, §4, §5, §6, §8

[2] = Ca-imaging, HEK293 cells, individual odorant 200 μM, significant response p<0.05
[3] = Ca-imaging, single odorants 200 μM

O=Cc1ccccc1 [Banzaldehyde, Benzaldehyde] was tested, and the “OR4K2 responded to odorant” value (OR4K2) was “▪”.
For OC/C=C/c1ccccc1 [Cinamyl alcohol, Cinamylalcohol], the “OR10A6 responded to odorant” value (OR10A6) was “▪”.
For CC(C)(CO)Cc1ccccc1 [Muguet alcohol, Muguetalcohol], the “Response of OR8B4 to odorant, in words” value (OR8B4) was “activated”, the “OR10A6 responded to odorant” value (OR10A6) was “▪” and the “Response of OR10A6 to odorant, in words” value (OR10A6; single odorants 200 μM) was “detected”. The “Number of cell responses, Control” value [1] was 0, the “OR8D2 responded to odorant” value (OR8D2; [2]) was “▪” and the “Response of OR8D2 to odorant, in words” value (OR8D2; [3]) was “significantly activated; also recorded: detected”. The “Number of cell responses, Experiment (OR8D2)” value (OR8D2) was 21.
In the case of CCCCCCCCO [Octanol], the “Number of cell responses, Control” value [1] was 0 and the “Number of cell responses, Experiment (OR8D2)” value (OR8D2) was 9.
With CCCC(O)CCC1C(C)CCCC1(C)C (stereo not drawn) [Timbrol, Timberol] the “OR2L8 responded to odorant” value (OR2L8; [2]) was “▪”, the “Response of OR2L8 to odorant, in words” value (OR2L8; [3]) was “Ca2+ concentration increased” and the “Number of cell responses, Experiment (OR2L8)” value (OR2L8; odorant 200 μM, approximately 2000 transfected cells in three times of measuring (Table 4, FIG. 5)) was 10. The “Number of cell responses, Control” value [1] was 1.
In the case of Cc1ccc2c(c1)OCC(=O)CO2 [calone, Calone], the “Number of cell responses, Control” value [1] was 0, the “OR1B1 responded to odorant” value (OR1B1; HEK293 cells, individual odorant 200 μM, significant response p<0.05) was “▪” and the “Response of OR1B1 to odorant, in words” value (OR1B1; single odorants 200 μM) was “significantly (P<0.05) activated”.
